The test system of experiment [1] is Rattus norvegicus. Kind of experiment: Induction of diuresis in Rattus norvegicus albino (rat) assessed as urinary K+ excretion at 20 mg/kg, po measured at 5-18 hr after drug administration by standard Lipschitz method (reference value: 0.22 +/-0.004 mEq/L). Type of experiment: functional, Urine.
Experiment [2] relates to Rattus norvegicus. The experiment is described as follows: Induction of diuresis activity in Rattus norvegicus albino (rat) assessed as urinary excretion at 20 mg/kg, po measured at 0-5 hr after drug administration by standard Lipschitz method against frusemide-treated control (reference value: 0.5 no unit). The experiment is classed as functional, Urine.
The test system of experiment [3] is Rattus norvegicus. The experiment is described as follows: Induction of diuresis action in Rattus norvegicus albino (rat) assessed as urinary excretion at 20 mg/kg, po measured at 0-5 hr after drug administration by standard Lipschitz method against untreated control (reference value: 1 no unit). The experiment is classed as functional, Urine.
The subject of experiment [4] is Rattus norvegicus. Kind of experiment: Induction of diuresis in Rattus norvegicus albino (rat) assessed as urinary K+ excretion at 20 mg/kg, po measured at 0-5 hr after drug administration by standard Lipschitz method (reference value: 0.46 +/-0.006 mEq/L). Type of experiment: functional, Urine.
In experiment [5] the test system is Rattus norvegicus. The experiment is described as follows: Induction of diuresis action in Rattus norvegicus albino (rat) assessed as urinary excretion at 20 mg/kg, po measured at 5-18 hr after drug administration by standard Lipschitz method against untreated control (reference value: 1 no unit). The experiment is classed as functional, Urine.
For experiment [6], the system named is Rattus norvegicus. The experiment is described as follows: Induction of diuresis in Rattus norvegicus albino (rat) assessed as urinary Cl- excretion at 20 mg/kg, po measured at 5-18 hr after drug administration by standard Lipschitz method (reference value: 0.38 +/-0.011 mEq/L). The experiment is classed as functional, Urine.
Experiment [7] deals with Rattus norvegicus. The experiment is described as follows: Induction of diuresis in Rattus norvegicus albino (rat) assessed as urinary Cl- excretion at 20 mg/kg, po measured at 0-5 hr after drug administration by standard Lipschitz method (reference value: 0.46 +/-0.005 mEq/L). Type of experiment: functional, Urine.
Experiment [8] has as its system Rattus norvegicus. Kind of experiment: Induction of diuresis in Rattus norvegicus albino (rat) assessed as urinary excretion at 20 mg/kg, po measured at 5-18 hr after drug administration by standard Lipschitz method (reference value: 50.4%). Type of experiment: functional, Urine.
Experiment [9] relates to Rattus norvegicus. The experiment is described as follows: Induction of diuresis in Rattus norvegicus albino (rat) assessed as total urinary output at 20 mg/kg, po measured at 0-5 hr after drug administration by standard Lipschitz method (reference value: 2.46 +/-0.125 ml). Type of experiment: functional, Urine.
Experiment [10] relates to Rattus norvegicus. The experiment is described as follows: Induction of diuresis in Rattus norvegicus albino (rat) assessed as urinary excretion at 20 mg/kg, po measured at 0-5 hr after drug administration by standard Lipschitz method (reference value: 98.40%). The experiment is classed as functional, Urine.
Experiment [11] relates to Rattus norvegicus. Kind of experiment: Induction of diuresis in Rattus norvegicus albino (rat) assessed as normal saline intake at 20 mg/kg, po measured at 5-18 hr after drug administration by standard Lipschitz method (reference value: 2.50 +/-0.036 ml). The experiment is classed as functional.
In experiment [12] the test system is Rattus norvegicus. The experiment is described as follows: Induction of diuresis in Rattus norvegicus albino (rat) assessed as urinary Na+ excretion at 20 mg/kg, po measured at 5-18 hr after drug administration by standard Lipschitz method (reference value: 0.65+/-0.006 mEq/L). The experiment is classed as functional, Urine.
The test system of experiment [13] is Rattus norvegicus. The experiment is described as follows: Induction of diuresis activity in Rattus norvegicus albino (rat) assessed as urinary excretion at 20 mg/kg, po measured at 5-18 hr after drug administration by standard Lipschitz method against frusemide-treated control (reference value: 0.2 no unit). The experiment is classed as functional, Urine.
Experiment [14] has as its system Rattus norvegicus. The experiment is described as follows: Induction of diuresis in Rattus norvegicus albino (rat) assessed as normal saline intake at 20 mg/kg, po measured at 0-5 hr after drug administration by standard Lipschitz method (reference value: 2.50 +/-0.036 ml). The experiment is classed as functional.
Experiment [15] relates to Rattus norvegicus. The experiment is described as follows: Induction of diuresis in Rattus norvegicus albino (rat) assessed as urinary Na+ excretion at 20 mg/kg, po measured at 0-5 hr after drug administration by standard Lipschitz method (reference value: 0.90 +/-0.003 mEq/L). The experiment is classed as functional, Urine.
Experiment [16] deals with Rattus norvegicus. The experiment is described as follows: Induction of diuresis in Rattus norvegicus albino (rat) assessed as total urinary output at 20 mg/kg, po measured at 5-18 hr after drug administration by standard Lipschitz method (reference value: 1.26 +/-0.049 ml). The experiment is classed as functional, Urine.

For the compound `COc1cc(C2CC(c3ccc(O)cc3)=NN2C(=O)c2ccc(Cl)cc2)ccc1OCC(=O)O` (stereo not given), the Activity in the experiment with Rattus norvegicus [1] was found to be 0.56 mEq/L; in the experiment with Rattus norvegicus [4] it was 0.45 mEq/L; with Rattus norvegicus [6] it was 0.95 mEq/L; in the experiment on Rattus norvegicus [7], 0.46 mEq/L; in the experiment with Rattus norvegicus [8], 183.45%; with Rattus norvegicus [9], 2.5 mL. Besides, the Activity is 89.28% in the experiment with Rattus norvegicus [10]; 2.84 mL in the experiment on Rattus norvegicus [11]; 1.95 mEq/L in the experiment on Rattus norvegicus [12]; 2.84 mL with Rattus norvegicus [14]; 0.87 mEq/L with Rattus norvegicus [15]; 5.21 mL in the experiment with Rattus norvegicus [16]. For the same compound, the Ratio is recorded as 0.45 in the experiment on Rattus norvegicus [2], 0.9 with Rattus norvegicus [3], 3.66 in the experiment on Rattus norvegicus [5] and 0.74 with Rattus norvegicus [13].
With `COc1cc(C2CC(c3ccc(Cl)cc3)=NN2C(=O)c2ccc(Cl)cc2)ccc1OCC(=O)O` (stereo not given), the Activity was 1.76 mEq/L with Rattus norvegicus [1]; 1.55 mEq/L in the experiment with Rattus norvegicus [4]; 1.77 mEq/L in the experiment on Rattus norvegicus [6]; 1.94 mEq/L in the experiment with Rattus norvegicus [7]; 278% in the experiment on Rattus norvegicus [8]; 6.06 mL in the experiment on Rattus norvegicus [9]. In addition, the Activity in the experiment on Rattus norvegicus [10] was determined as 226.96%; with Rattus norvegicus [11], 2.67 mL; in the experiment with Rattus norvegicus [12] it was 3.26 mEq/L; with Rattus norvegicus [14], 2.67 mL; in the experiment on Rattus norvegicus [15] it was 2.82 mEq/L; with Rattus norvegicus [16], 7.43 mL. For the same compound, the Ratio came to 1.11 with Rattus norvegicus [2], 2.2 in the experiment on Rattus norvegicus [3], 5.56 with Rattus norvegicus [5] and 1.12 in the experiment with Rattus norvegicus [13].
On to `COc1ccc(C2=NN(C(=O)c3ccc(Cl)cc3)C(c3ccc(OCC(=O)O)c(OC)c3)C2)cc1` (stereo not given), for which the Activity came out at 0.068 mEq/L in the experiment on Rattus norvegicus [1]; 0.36 mEq/L in the experiment with Rattus norvegicus [4]; 0.06 mEq/L with Rattus norvegicus [6]; 0.36 mEq/L in the experiment on Rattus norvegicus [7]; 8.07% with Rattus norvegicus [8]; 1.21 mL in the experiment on Rattus norvegicus [9]. The Activity in the experiment on Rattus norvegicus [10] is 42.45%; with Rattus norvegicus [11], 2.85 mL; in the experiment on Rattus norvegicus [12], 0.11 mEq/L; in the experiment with Rattus norvegicus [14], 2.85 mL; with Rattus norvegicus [15] it was 0.76 mEq/L; in the experiment with Rattus norvegicus [16], 0.23 mL. The Ratio was found to be 0.2 with Rattus norvegicus [2], 0.4 in the experiment with Rattus norvegicus [3], 0.16 in the experiment with Rattus norvegicus [5] and 0.03 in the experiment on Rattus norvegicus [13].
For `NS(=O)(=O)c1cc(C(=O)O)c(NCc2ccco2)cc1Cl` [FUROSEMIDE], the Activity in the experiment with Rattus norvegicus [1] stood at 3.11 mEq/L; in the experiment on Rattus norvegicus [4], 1.27 mEq/L; in the experiment with Rattus norvegicus [6], 1.83 mEq/L; in the experiment with Rattus norvegicus [7], 1.24 mEq/L; in the experiment with Rattus norvegicus [8], 247.63%; in the experiment on Rattus norvegicus [9], 5.35 mL. Further, the Activity with Rattus norvegicus [10] worked out at 194.54%; in the experiment on Rattus norvegicus [11], 2.75 mL; with Rattus norvegicus [12], 3.11 mEq/L; with Rattus norvegicus [14], 2.75 mL; in the experiment on Rattus norvegicus [15], 2.44 mEq/L; with Rattus norvegicus [16], 6.81 mL. In addition, the Ratio in the experiment on Rattus norvegicus [2] is recorded as 1; with Rattus norvegicus [3], 1.97; in the experiment with Rattus norvegicus [5] it was 4.94; with Rattus norvegicus [13] it was 1.
For `COc1cc(C2CC(c3ccc(Cl)cc3)=NN2C(=O)COc2ccccc2)ccc1OCC(=O)O` (stereo not given), the Activity in the experiment on Rattus norvegicus [1] was 1.96 mEq/L; in the experiment with Rattus norvegicus [4], 1.74 mEq/L; in the experiment on Rattus norvegicus [6] it was 1.77 mEq/L; with Rattus norvegicus [7], 1.66 mEq/L; in the experiment on Rattus norvegicus [8], 345.91%; with Rattus norvegicus [9] it was 7.28 mL. The Activity came out at 247.61% in the experiment with Rattus norvegicus [10]; 2.94 mL in the experiment with Rattus norvegicus [11]; 3.82 mEq/L in the experiment on Rattus norvegicus [12]; 2.94 mL in the experiment with Rattus norvegicus [14]; 3.26 mEq/L with Rattus norvegicus [15]; 10.17 mL in the experiment with Rattus norvegicus [16]. Besides, the Ratio with Rattus norvegicus [2] is listed as 1.26; with Rattus norvegicus [3], 2.5; with Rattus norvegicus [5], 6.92; in the experiment with Rattus norvegicus [13], 1.39.

The values above are taken from ChEMBL document CHEMBL3046926, “Molecular properties prediction, synthesis, and diuretic activity of phenoxy acetic acid bearing pyrazolines” (2013).
